In patent US8791267B2, “Biaryl PDE4 inhibitors for treating inflammatory, cardiovascular and CNS disorders” (Decode Genetics EHF, priority 2007, dated 2014):
Counter-ions that a name gives are not always drawn.

target: PDE4 (Homo sapiens, UniProt Q08499); experiment: In-vitro assay for PDE4 enzymes, real-time enzyme-coupled spectrophotometric assay (Table 9); format: biochemical; conditions: not given
Sequence (Q08499 whole entry): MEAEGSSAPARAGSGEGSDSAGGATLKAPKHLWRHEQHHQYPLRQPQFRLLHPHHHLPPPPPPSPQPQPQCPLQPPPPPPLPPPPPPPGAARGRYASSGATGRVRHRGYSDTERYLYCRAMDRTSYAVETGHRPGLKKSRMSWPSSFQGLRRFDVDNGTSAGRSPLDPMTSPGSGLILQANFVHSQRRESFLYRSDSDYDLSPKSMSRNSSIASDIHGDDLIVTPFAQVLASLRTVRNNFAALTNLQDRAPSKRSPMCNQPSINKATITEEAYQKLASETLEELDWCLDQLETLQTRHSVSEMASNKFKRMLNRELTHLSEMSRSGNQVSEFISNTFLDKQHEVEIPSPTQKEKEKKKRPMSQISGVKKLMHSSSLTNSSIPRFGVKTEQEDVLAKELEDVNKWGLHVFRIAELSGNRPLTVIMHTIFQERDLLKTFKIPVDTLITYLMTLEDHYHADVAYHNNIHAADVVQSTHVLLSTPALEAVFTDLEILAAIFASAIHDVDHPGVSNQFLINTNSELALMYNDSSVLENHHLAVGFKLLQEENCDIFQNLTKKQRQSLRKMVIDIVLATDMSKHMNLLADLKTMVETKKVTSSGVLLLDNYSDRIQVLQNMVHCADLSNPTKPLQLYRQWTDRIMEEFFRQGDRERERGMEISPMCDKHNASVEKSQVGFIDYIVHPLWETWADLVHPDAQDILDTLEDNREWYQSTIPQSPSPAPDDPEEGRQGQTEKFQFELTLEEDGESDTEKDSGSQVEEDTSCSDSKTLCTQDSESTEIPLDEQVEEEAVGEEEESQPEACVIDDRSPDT

Row | Structure (SMILES) | IC50 [µM]
1 | COc1ccc(Cc2ccc(CNC(=O)Oc3ccccc3)nc2)c(F)c1-c1cccc(Cl)c1 [P-520, [5-(3′-Chloro-2-fluoro-6-methoxy-biphenyl-3-ylmethyl)-pyridin-2-ylmethyl]-carbamic acid phenyl ester] | < 5

same assay, conditions: human PDE4D; activity class, Table 9; read-out: hPDE4D

Row | Structure (SMILES) | IC50 [µM]
2 | COc1ccc(Cc2ccc(F)cc2)c(C#N)c1-c1cccc([N+](=O)[O-])c1 [P-163, 3-(4-fluoro-benzyl)-6-methoxy-3′-nitro-biphenyl-2-carbonitrile] | < 5
3 | COc1ccc(C(O)c2ccc(C#N)cc2)c(O)c1-c1cccc([N+](=O)[O-])c1 (stereo not shown) [P-137, 4-[Hydroxy-(2-hydroxy-6-methoxy-3′-nitro-biphenyl-3-yl)-methyl]benzonitrile] | < 5
4 | COCc1cccc(-c2cc(Cn3cncn3)ccc2OC)c1 [P-108, 1-(6-Methoxy-3′-methoxymethyl-biphenyl-3-ylmethyl)-1H-[1,2,4]triazole] | < 5
5 | O=CNCc1ccccc1Cc1ccc(O)c(-c2cccc([N+](=O)[O-])c2)c1 [P-501, N-[2-(6-Hydroxy-3′-nitro-biphenyl-3-ylmethyl)-benzyl]-formamide] | 5 to 20
6 | COc1ccc(Cc2ccc(NC(C)=O)cc2)c(F)c1-c1cccc(N)c1 [P-167] | < 5
7 | COc1ccc(Cc2ccc(N3CC[C@@H]3C(N)=O)nc2)c(F)c1-c1cccc(Cl)c1 [P-617, (R)-1-[5-(3′-chloro-2-fluoro-6methoxy-biphenyl-3-ylmethyl)-pyridin-2-yl]-azetidine-2-carboxylic acid amide] | < 5
8 | COc1ccc(Cc2ccc(F)cc2)cc1-c1ccc2c(c1)OC(F)(F)O2 [P-141, 2,2-Difluoro-5-[5-(4-fluoro-benzyl)-2-methoxy-phenyl]-benzo[1,3]dioxole] | < 5
9 | COc1ccc(Cc2ccc(OCCN3CCOCC3)cc2)c(F)c1-c1cccc(Cl)c1 [P-219] | < 5
10 | COc1ccc(Cn2cc(-c3ccc(NC(N)=O)cc3)cn2)c(F)c1-c1cccc(Cl)c1 [P-435] | < 5
11 | NC(=O)Nc1ccc(Cc2ccc(OC(F)F)c(-c3cccc(Cl)c3)c2)cn1 [P-616, [5-(3′-Chloro-6-difluoromethoxy-biphenyl-3-ylmethyl)-pyridin-2-yl]-urea] | < 5
12 | COc1ccc(Cc2ccc(C(C)N3CCC3)nc2)cc1-c1cccc(Cl)c1 (stereo not shown) [P-609, 2-(1-azetidin-1-yl-ethyl)-5-(3′-chloro-6-methoxy-biphenyl-3-ylmethyl)-pyridine] | < 5
13 | COc1ccc(Cc2ccc(N(C)CC(N)=O)nc2)c(F)c1-c1cccc(Cl)c1 [P-622, 2-{[5-(3′-Chloro-2-fluoro-6-methoxy-biphenyl-3-ylmethyl)-pyridin-2-yl]-methyl-amino}-acetamide] | < 5
14 | CCOC(=O)N1CCN(c2ccc(Cc3ccc(OC)c(-c4cccc(Cl)c4)c3F)cn2)CC1 [P-431] | < 5
15 | COc1ccc(Cc2ccc(F)cc2)cc1-n1ccc(C(F)(F)F)n1 [P-396, 1-[5-(4-Fluoro-benzyl)-2-methoxy-phenyl]-3-trifluoromethyl-1H-pyrazole] | < 5
16 | COc1ccc(C(=O)c2ccc(N)cc2)cc1-c1cccc(Cl)c1 [P-558, (4-amino-phenyl)-(3′-chloro-6-methoxy-biphenyl-3-yl)-methanone] | < 5
17 | CCNC(=O)N1CCN(c2ccc(Cc3ccc(OC)c(-c4cccc(Cl)c4)c3F)cn2)CC1 [P-514, 4-[5-(3′-chloro-2-fluoro-6-methoxy-biphenyl-3-ylmethyl)-pyridin-2-yl]-piperazine-1-carboxylic acid ethylamide hydrochloride] | < 5
18 | COc1ccc(Cc2ccc(N(C)C)cc2)c(F)c1-c1cccc(C(C)=O)c1 [P-326, 1-[3′-(4-Dimethylamino-benzyl)-2′-fluoro-6′-methoxy-biphenyl-3-yl]-ethanone] | < 5
19 | COc1ccc(Cc2ccc(F)cc2)cc1-n1cc(Cl)cn1 [P-380, 4-Chloro-1-[5-(4-fluoro-benzyl)-2-methoxy-phenyl]-1H-pyrazole] | < 5
20 | COc1ccc(Cc2ccc(F)cc2)c(F)c1-c1cccc(Br)c1 [P-139] | < 5
21 | COc1ccc([C@@](C)(O)c2ccc(NC(C)=O)cc2)c(F)c1-c1cccc(Cl)c1 (single isomer, unassigned) [P-561] | < 5
22 | COc1ccc(COc2ccc(NC(C)=O)cc2)c(F)c1-c1cccc(Br)c1 [P-194] | < 5
23 | COc1ccc(N(C)c2ccc(NC(N)=O)cc2)cc1-c1cccc(Cl)c1 [P-293, {4-[(3′-Chloro-6-methoxy-biphenyl-3-yl)-methyl-amino]-phenyl}-urea] | < 5
24 | COc1ccc(COc2ccc(Br)cn2)c(F)c1-c1cccc(Cl)c1 [P-574] | < 5
25 | [2H]C(O)(c1ccc([N+](=O)[O-])cc1)c1ccc(OC)c(-c2cccc(Cl)c2)c1F (stereo not shown) [P-537, deutero-(3′-chloro-2-fluoro-6-methoxy-biphenyl-3-yl)-(4-nitro-phenyl)-methanol] | < 5
26 | FC(F)Oc1ccc(Cc2ccc(N3CCC3)nc2)cc1-c1cccc(Cl)c1 [P-614, 2-Azetidin-1-yl-5-(3′-chloro-6-difluoromethoxy-biphenyl-3-ylmethyl)-pyridine] | < 5
27 | COc1ccc(Cc2cccc(CNC(=O)OC(C)(C)C)c2)cc1-c1cccc([N+](=O)[O-])c1 [P-160, [3-(6-Methoxy-3′-nitro-biphenyl-3-ylmethyl)-benzyl]-carbamic acid tert-butyl ester] | 5 to 20

Row | Structure (SMILES) | IC50 [µM]
28 | COc1ccc(Cc2ccc(Nc3nccs3)cc2)c(F)c1-c1cccc(Cl)c1 [P-466] | < 5
29 | NC(=O)Nc1ccc(Cc2ccc(OCC3CCCO3)c(-c3cccc(Cl)c3)c2)cc1 (stereo not shown) [P-543, {4-[3′-Chloro-6-(tetrahydro-furan-2-ylmethoxy)-biphenyl-3-ylmethyl]-phenyl}-urea] | < 5
30 | COc1ccc(Cc2ccc(N(C)C)cc2)cc1-c1cccc(Cl)c1 [P-241, [4-(3′-Chloro-6-methoxy-biphenyl-3-ylmethyl)-phenyl]-dimethyl-amine] | < 5
31 | COc1ccc(Cc2ccc(F)cc2)cc1-c1cccnc1 [P-474, 3-[5-(4-Fluoro-benzyl)-2-methoxy-phenyl]-pyridine] | < 5
32 | COc1ccc(C(=O)c2ccc(N)cc2)cc1-c1ccc(F)c(F)c1 [P-580] | < 5
33 | COc1ccc(Cc2cccc(OCCN3CCOCC3)c2)c(F)c1-c1cccc(Cl)c1 [P-220] | < 5
34 | COc1ccc(Cc2ccc(N3CC[C@H]3C(N)=O)nc2)c(F)c1-c1cccc(Cl)c1 [P-615, (S)-1-[5-(3′-chloro-2-fluoro-6methoxy-biphenyl-3-ylmethyl)-pyridin-2-yl]-azetidine-2-carboxylic acid amide] | < 5
35 | CN(C)CCOc1ccc(Cc2ccc(NC(N)=O)cc2)cc1-c1cccc(Cl)c1 [P-548, {4-[3′-Chloro-6-(2-dimethylamino-ethoxy)-biphenyl-3-ylmethyl]-phenyl}-urea] | 5 to 20
36 | COc1ccc(Cn2nc(C(F)(F)F)cc2-c2cccnc2)c(F)c1-c1cccc(Cl)c1 [P-552, 3-[2-(3′-Chloro-2-fluoro-6-methoxy-biphenyl-3-ylmethyl)-5-trifluoromethyl-2H-pyrazol-3-yl]-pyridine hydrochloride salt] | < 5
37 | COc1ccc(Cc2nnc(N)o2)cc1-c1cccc(Cl)c1 [P-306, 5-(3′-Chloro-6-methoxy-biphenyl-3-ylmethyl)-[1,3,4]oxadiazol-2-ylamine] | 5 to 20
38 | COc1ccc(C(=O)c2ccc(NC(N)=O)cc2)c(F)c1-c1cccc(Cl)c1 [P-434, [4-(3′-chloro-2-fluoro-6-methoxy-biphenyl-3-carbonyl)-phenyl]-urea] | < 5
39 | COc1ccc(Cc2ccc(C(C)NC(N)=O)nc2)c(F)c1-c1cccc(Cl)c1 (stereo not shown) [P-613, {1-[5-(3′-Chloro-2-fluoro-6-methoxy-biphenyl-3-ylmethyl)-pyridin-2-yl]-ethyl}-urea hydrochloride] | < 5
40 | CCNC(=O)Nc1ccc(S(=O)(=O)c2ccc(OC)c(-c3cccc(Cl)c3)c2)cc1 [P-450, 1-[4-(3′-Chloro-6-methoxy-biphenyl-3-sulfonyl)-phenyl]-3-ethyl-urea] | < 5
41 | COc1ccc(Cc2ccc([N+](=O)[O-])c(O)c2)c(F)c1-c1cccc(Cl)c1 [P-257] | < 5
42 | CCOc1ccc(Cc2ccc(NC(C)=O)cc2)c(F)c1-c1cccc(Br)c1 [P-322] | < 5
43 | COc1ccc(Cc2cccc(NC(C)=O)c2)cc1-c1cccc(Cl)c1 [P-477, N-[3-(3′-Chloro-6-methoxy-biphenyl-3-ylmethyl)-phenyl]-acetamide] | < 5
44 | COc1ccc(CO)nc1-c1cccc([N+](=O)[O-])c1 [P-491, [5-methoxy-6-(3-nitro-phenyl)-pyridin-2-yl]-methanol] | 20 to 40
45 | COc1ccc(Cc2ccc(F)cc2)cc1-c1cccc(SC)c1 [P-151, 5-(4-Fluoro-benzyl)-2-methoxy-3′-methylsulfanyl-biphenyl] | < 5
46 | COc1ccc(Cc2ccc(N(C)C)cc2)c(O)c1-c1cccc([N+](=O)[O-])c1 [P-157, 3-(4-Dimethylamino-benzyl)-6-methoxy-3′-nitro-biphenyl-2-ol] | < 5
47 | COc1ccc(Cc2ccc(NC(C)=O)cc2)c(F)c1-c1cccc(N2CCOCC2)c1 [P-390, N-[4-(2-Fluoro-6-methoxy-3′-morpholin-4-yl-biphenyl-3-ylmethyl)-phenyl]-acetamide] | 5 to 20
48 | COc1ccc(CN2C(=O)CC[C@@H]2CO)cc1-c1cccc([N+](=O)[O-])c1 [P-132, (R)-5-Hydroxymethyl-1-(6-methoxy-3′-nitro-biphenyl-3-ylmethyl)-pyrrolidin-2-one] | 20 to 40
49 | COc1ccc(Cn2cncn2)cc1-c1cccc([S+](C)[O-])c1 (stereo not shown) [P-169, 1-(3′-Methanesulfinyl-6-methoxy-biphenyl-3-ylmethyl)-1H-[1,2,4]triazole] | 5 to 20
50 | COc1ccc(CN2CC[C@@H](O)C2)cc1-c1cccc(C(F)(F)F)c1 [P-078] | 5 to 20
51 | COc1ccc(Cn2cc(-c3ccncn3)cn2)c(F)c1-c1cccc(Cl)c1 [P-546, 4-[1-(3′-Chloro-2-fluoro-6-methoxy-biphenyl-3-ylmethyl)-1H-pyrazol-4-yl]-pyrimidine hydrochloride salt] | < 5
52 | COc1ccc(Cc2ccc(N3CCC(O)C3)nc2)c(F)c1-c1cccc(Cl)c1 (stereo not shown) [P-601, 1-[5-(3′-chloro-2-fluoro-6-methoxy-biphenyl-3-ylmethyl)-pyridin-2-yl]-pyrrolidin-3-ol] | < 5
